Measurements reported in US8476274B2, “Biaryl spiroaminooxazoline analogues as Alpha2C adrenergic receptor modulators” (Merck Sharp & Dohme Corp., priority 2008, dated 2013).

Target: T1, α2C receptor (Homo sapiens, UniProt P18825)
T1 sequence (P18825 1-462): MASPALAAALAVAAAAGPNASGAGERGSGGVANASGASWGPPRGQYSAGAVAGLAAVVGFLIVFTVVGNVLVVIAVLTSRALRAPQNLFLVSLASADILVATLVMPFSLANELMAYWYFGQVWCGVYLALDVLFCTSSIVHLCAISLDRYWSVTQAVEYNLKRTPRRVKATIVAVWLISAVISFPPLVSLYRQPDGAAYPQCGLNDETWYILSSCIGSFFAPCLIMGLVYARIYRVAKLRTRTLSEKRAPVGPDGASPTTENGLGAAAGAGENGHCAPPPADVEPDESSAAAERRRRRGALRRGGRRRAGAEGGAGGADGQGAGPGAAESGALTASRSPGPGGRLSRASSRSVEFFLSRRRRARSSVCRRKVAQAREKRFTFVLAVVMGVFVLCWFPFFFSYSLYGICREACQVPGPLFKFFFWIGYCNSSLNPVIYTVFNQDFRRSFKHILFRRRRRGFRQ
Test: binding inhibition (Ki) at the α2C receptor
Conditions: compounds classed as α2C antagonists; read-out: Ki at the α2C receptor subtype
Method: A compound is defined to be an antagonist of the alpha-2C receptor if the compounds's efficacy at the α2C receptor is <30% Emax (GTPγS assay) and the binding inhibition of at the α2C receptor (Ki) is <500 nM, preferably <200 nM, and most preferably <20 nM.
Efficacy agonist activity values (Emax, GTPγS assay) for α2A and α2C were determined by following the general procedure detailed by Umland et. al (“Receptor reserve analysis of the human α2c-adrenoceptor using [^35S]GTPγS and cAMP functional assays” European Journal of Pharmacology 2001, 411, 211-221). For the purposes of the present invention, a compound is defined to be a specific or at least functionally selective agonist of the α2C receptor subtype if the compound's efficacy at the α2C receptor is ≧30% Emax (GTPγS assay) and its efficacy at the α2A receptor is 35% Emax (GTPγS assay). Additionally, for the purposes of this invention, a compound is defined to be an antagonist of the α2C receptor subtype if the compound's efficacy at the α2C receptor is <30% Emax (GTPγS assay) and the Ki at the α2C receptor subtype was <500 nM, preferentially <200 nM, and most preferentially <20 nM.

Ki | SMILES
< 200 nM | NC1=NC2(CCc3cccc(-c4ccccc4)c3C2)CO1 (racemic) [(±)-1G]
< 200 nM | CN(C)c1ncc(-c2cccc3c2CC2(CC3)COC(N)=N2)cn1 (racemic) [(±)-3]
< 200 nM | N#Cc1cccc(-c2cccc3c2CC2(CC3)COC(N)=N2)c1 (racemic) [(±)-6J]
< 200 nM | N#Cc1ccc(-c2cccc3c2CC2(CC3)COC(N)=N2)cc1 (racemic) [(±)-6K]
< 200 nM | Cn1nccc1-c1cccc2c1CC1(CC2)COC(N)=N1 (racemic) [(±)-6L]
< 200 nM | NC1=NC2(CO1)Cc1ccc(-c3ccccc3)cc1C2 (racemic) [(±)-8E]
< 200 nM | NC1=NC2(CO1)Cc1ccc(-c3cccnc3)cc1C2 (racemic) [(±)-8I]
< 200 nM | Cn1nccc1-c1ccc2c(c1)CC1(COC(N)=N1)C2 (racemic) [(±)-8R]
< 200 nM | Cc1noc(C)c1-c1ccc2c(c1)CC1(COC(N)=N1)C2 (racemic) [(±)-8S]
< 200 nM | NC1=NC2(CO1)Cc1ccc(-c3cncnc3)cc1C2 (racemic) [(±)-8]
< 200 nM | Cc1ncnc(C)c1-c1ccc2c(c1)CC1(CC2)COC(N)=N1 (racemic) [(±)-10B]
< 200 nM | NC1=NC2(CCc3ccc(-c4cccnn4)cc3C2)CO1 (racemic) [(±)-11]
< 200 nM | COc1ccc(-c2cncnc2)c2c1CCC1(COC(N)=N1)C2 (racemic) [(±)-16]
< 200 nM | NC1=NC2(CO1)Cc1cccc(-c3cn[nH]c3)c1C2 (racemic) [(±)-50K]
< 200 nM | Cc1n[nH]c(C)c1-c1cccc2c1CC1(COC(N)=N1)C2 (racemic) [(±)-50L]
< 200 nM | Cc1noc(C)c1-c1cccc2c1CC1(COC(N)=N1)C2 (racemic) [(±)-50M]
< 200 nM | NC1=NC2(CCO1)CCc1c(cccc1-c1cncnc1)C2 (racemic) [(±)-57]
< 200 nM | CC1CC2(COC(N)=N2)Cc2cccc(-c3cncnc3)c21 (racemic) [(±)-58]
< 200 nM | Cc1n[nH]c(C)c1-c1ccc2c(c1)CC1(CC2)COC(N)=N1 (racemic) [(±)-101]

Ki | SMILES
< 200 nM | COc1cncc(-c2cccc3c2CC2(CC3)COC(N)=N2)c1 (racemic) [(±)-112]
< 200 nM | Cc1noc(C)c1-c1cccc2c1CC1(CC2)COC(N)=N1 (racemic) [(±)-113]
< 200 nM | Cc1n[nH]c(C)c1-c1cccc2c1CC1(CC2)COC(N)=N1 (racemic) [(±)-114]
< 200 nM | NC1=NC2(CCc3c(cccc3-c3cncs3)C2)CO1 (racemic) [(±)-129]
< 200 nM | COc1ncc(-c2cccc3c2CCC2(COC(N)=N2)C3)cn1 (racemic) [(±)-133]
< 200 nM | NC1=N[C@]2(CCc3cc(Br)ccc3C2)CO1 (racemic) [(±)-340]
< 200 nM | NC1=N[C@@]2(CCc3c(cccc3-c3ccoc3)C2)CO1 [Compound 21I]
< 200 nM | Cn1nccc1-c1cccc2c1CC[C@]1(COC(N)=N1)C2 [Compound 21J]
< 200 nM | NC1=N[C@@]2(CCc3c(cccc3-c3cccnc3)C2)CO1 [Compound 21K]
< 200 nM | NC1=N[C@]2(CCc3c(cccc3-c3cncs3)C2)CO1 [Compound 119]
< 200 nM | NC1=N[C@@]2(CCc3ccc(-c4cncnc4)cc3C2)CO1 [Compound 142]
< 200 nM | NC1=N[C@@]2(CCc3cccc(-c4ccccc4)c3C2)CO1 [Compound 143]
< 200 nM | NC1=N[C@@]2(CCc3cccc(-c4cccnc4)c3C2)CO1 [Compound 145]
< 200 nM | NC1=N[C@]2(CCc3cccc(-c4cncnc4)c3C2)CO1 [Compound 149]
< 200 nM | Cc1ccncc1-c1cccc2c1C[C@]1(CC2)COC(N)=N1 [Compound 150]
< 200 nM | Cc1ccncc1-c1cccc2c1C[C@@]1(CC2)COC(N)=N1 [Compound 151]
< 200 nM | CC1=N[C@@]2(CCc3c(cccc3-c3cncnc3)C2)CN1 [Compound 213]
< 200 nM | NC1=N[C@@]2(CCc3c(cccc3-c3ccco3)C2)CN1 [Compound 238]
